Like-named read-outs stand apart in the source and are kept apart here. Each block holds one compound with its values, some of them ahead of it.
Assays:
[1] = tested on: DLD1 BRCA2-/- cells; experiment: Cell viability assay (CTG assay), DLD1 BRCA2-/- cells; format: cell-based; details: Homo sapiens, DLD-1, 240 h; CellTiter Glo, read on Day 10, initial concentration 30 µM
Description: (§1) 2. Cell Viability Assay of Pol θ Inhibitor
(§2) The cell viability assay, i.e., the commonly used CTG assay, was conducted for the efficacy of the inhibitor in vitro using the CellTiter Glo reagent (Promega, G7573).

[2] = target: helicase domain of the Pol θ protein (Homo sapiens, UniProt O75417); format: biochemical
Description: Biochemical Activity Assay (ADP Glo Assay) of Pol θ Inhibitor
The specific assay method was as follows: • 1) The helicase domain of the Pol θ protein was purified by an insect system, to obtain the protein with a purity of >90%. ssDNA (5'-[sequence]-3', Hangzhou Yocon Biotechnology Co., Ltd.) was ordered as the substrate for the Pol θ protein; and a reaction buffer containing 10 mM DTT (Dithiothreitol), 20 mM MgCl2 and Tris-HCl pH 7.5 was prepared. • 2) The 2x ssDNA-Pol θ premix was prepared; the reaction was conducted in a 384-well plate; a control group with only buffer is set, and the premix was added to the rest of the groups.

[3] = tested on: DLD1 wild type; experiment: Cell viability assay (CTG assay), DLD1 wild type cells; format: cell-based; details: Homo sapiens, DLD-1, 240 h; CellTiter Glo, read on Day 10, initial concentration 30 µM
Description: as §1, §2

[4] = ATPase activity, ADP-Glo, ssDNA substrate, 60 min at room temperature, initial concentration 10 µM, read-out: Biochemical experiment IC50

Sequence of helicase domain of the Pol θ protein (O75417 102-554 limits assumed): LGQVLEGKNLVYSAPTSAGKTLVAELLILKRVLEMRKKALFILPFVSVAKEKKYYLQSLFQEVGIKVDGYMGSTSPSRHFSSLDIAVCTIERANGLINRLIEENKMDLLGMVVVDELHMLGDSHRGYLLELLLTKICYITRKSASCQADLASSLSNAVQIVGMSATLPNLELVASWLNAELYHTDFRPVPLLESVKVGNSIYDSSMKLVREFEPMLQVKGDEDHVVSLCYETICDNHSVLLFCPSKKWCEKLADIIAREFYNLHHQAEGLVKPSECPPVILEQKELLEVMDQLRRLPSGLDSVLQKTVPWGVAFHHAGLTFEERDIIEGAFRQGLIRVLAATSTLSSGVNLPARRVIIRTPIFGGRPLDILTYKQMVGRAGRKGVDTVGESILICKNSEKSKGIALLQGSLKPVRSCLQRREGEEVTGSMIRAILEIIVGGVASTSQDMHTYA

IC50 [1]: 13.1 nM
IC50 [2, 4]: 6.11 nM
IC50 [3]: > 5000 nM
SMILES: COc1cnc(C(F)F)cc1-c1cc(-n2cccc(F)c2=O)ncc1C(=O)Nc1nc(-c2c(C)ncn2C)ns1 [Example 32, 2"-(difluoromethyl)-N-(3-(1,4-dimethyl-1H-imidazol-5-yl)-1,2,4-thiadiazol-5-yl)-3-fluoro-5"-methoxy-2-oxo-2H-[1,2':4',4"-terpyridin]-5'-carboxamide]

IC50 [1]: 5.62 nM
IC50 [2, 4]: 25.1 nM
IC50 [3]: 4300 nM
SMILES: COc1cnc(C(F)F)cc1-c1cc(-n2cccc(F)c2=O)ncc1C(=O)Nc1nc(-c2ncccn2)ns1 [Example 18, 2"-(difluoromethyl)-3-fluoro-5"-methoxy-2-oxo-N-(3-(pyrimidin-2-yl)-1,2,4-thiadiazol-5-yl)-2H-[1,2':4',4"-terpyridine]-5'-carboxamide]

IC50 [1]: 56.2 nM
IC50 [2, 4]: 32.1 nM
IC50 [3]: > 5000 nM
SMILES: COc1cnc(C(F)F)cc1-c1cc(-n2cccc(F)c2=O)ncc1C(=O)Nc1nc(-c2cnccn2)ns1 [Example 19, 2"-(difluoromethyl)-3-fluoro-5"-methoxy-2-oxo-N-(3-(pyrazin-2-yl)-1,2,4-thiadiazol-5-yl)-2H-[1,2':4',4"-terpyridine]-5'-carboxamide]

IC50 [1]: 3.98 nM
IC50 [2, 4]: 8.98 nM
IC50 [3]: > 5000 nM
SMILES: COc1cnc(C(F)F)cc1-c1cc(-n2cccc(F)c2=O)ncc1C(=O)Nc1nc(C(C)C)ns1 [Example 17, 2"-(difluoromethyl)-3-fluoro-N-(3-isopropyl-1,2,4-thiadiazol-5-yl)-5"-methoxy-2-oxo-2H-[1,2':4',4"-terpyridine]-5'-carboxamide]

IC50 [1]: 54.1 nM
IC50 [2, 4]: 17.6 nM
IC50 [3]: > 50000 nM
SMILES: COc1cnc(C(F)F)cc1-c1cc(-n2cccc(F)c2=O)ncc1C(=O)Nc1nc(-c2cccnc2)ns1 [Example 13, 2"-(difluoromethyl)-3-fluoro-5"-methoxy-2-oxo-N-(3-(pyridin-3-yl)-1,2,4-thiadiazol-5-yl)-2H-[1,2':4',4"-terpyridine]-5'-carboxamide]

Further lines, the compound ahead of its results:

SMILES: COc1cnc(C(F)F)cc1-c1cc(-n2cccc(F)c2=O)ncc1C(=O)Nc1nc(C)ns1 [Example 11, 2"-(difluoromethyl)-3-fluoro-5"-methoxy-N-(3-methyl-1,2,4-thiadiazol-5-yl)-2-oxo-2H-[1,2':4',4"-terpyridine]-5'-carboxamide]
IC50 [1]: 171 nM
IC50 [2, 4]: 14 nM
IC50 [3]: > 50000 nM

SMILES: COc1cnc(C(F)F)cc1-c1cc(-n2cccc(F)c2=O)ncc1C(=O)Nc1nc(C2CC2)cs1 [Example 3, N-(4-cyclopropylthiazol-2-yl)-2"-(difluoromethyl)-3-fluoro-5"-methoxy-2-oxo-2H-[1,2':4',4"-terpyridine]-5'-carboxamide]
IC50 [1]: 79.4 nM
IC50 [2, 4]: 10.3 nM
IC50 [3]: > 50000 nM

SMILES: COc1cnc(C(F)F)cc1-c1cc(-n2cccc(F)c2=O)ncc1C(=O)Nc1nc(C2CCC2)ns1 [Example 33, N-(3-cyclobutyl-1,2,4-thiadiazol-5-yl)-2"-(difluoromethyl)-3-fluoro-5"-methoxy-2-oxo-2H-[1,2":4'4"-bipyridin]-5'-carboxamide]
IC50 [1]: 8.57 nM
IC50 [2]: 4.11 nM
IC50 [3]: > 5000 nM

SMILES: COc1cnc(C(F)F)cc1-c1cc(-n2cccc(F)c2=O)ncc1C(=O)Nc1ncns1 [Example 10, 2"-(difluoromethyl)-3-fluoro-5"-methoxy-2-oxo-N-(1,2,4-thiadiazol-5-yl)-2H-[1,2':4',4''-terpyridine]-5'-carboxamide]
IC50 [1]: 89.1 nM
IC50 [2, 4]: 5.81 nM
IC50 [3]: > 50000 nM

SMILES: COc1cnc(C(F)F)cc1-c1cc(-n2cccc(F)c2=O)ncc1C(=O)Nc1nc(N2CCOCC2)ns1 [Example 24]
IC50 [1]: 15.3 nM
IC50 [2]: 20.3 nM
IC50 [3]: > 5000 nM

SMILES: COc1nsc(NC(=O)c2cnc(-n3cccc(F)c3=O)cc2-c2cc(C(F)F)ncc2OC)n1 [Example 7, 2"-(difluoromethyl)-3-fluoro-5"-methoxy-N-(3-methoxy-1,2,4-thiadiazol-5-yl)-2-oxo-2H-[1,2':4',4"-terpyridine]-5'-carboxamide]
IC50 [1]: 56.2 nM
IC50 [2, 4]: 4.02 nM
IC50 [3]: > 50000 nM

SMILES: COc1cnc(C(F)F)cc1-c1cc(-n2cccc(F)c2=O)ncc1C(=O)Nc1nc(N2CC3(COC3)C2)ns1 [Example 25, N-(3-(2-oxa-6-azaspiro[3.3]heptan-6-yl)-1,2,4-thiadiazol-5-yl)-2"-(difluoromethyl)-3-fluoro-5"-methoxy-2-oxo-2H-[1,2':4',4"-bipyridin]-5'-carboxamide]
IC50 [1]: 242 nM
IC50 [2]: 42.3 nM
IC50 [3]: > 5000 nM

SMILES: COc1cnc(C(F)F)cc1-c1cc(-n2cccc(F)c2=O)ncc1C(=O)Nc1nc(C(C)(C)C)ns1 [Example 6, N-(3-(tert-butyl)-1,2,4-thiadiazol-5-yl)-2"-(difluoromethyl)-3-fluoro-5"-methoxy-2-oxo-2H-[1,2':4',4"-terpyridine]-5'-carboxamide]
IC50 [1]: 52.1 nM
IC50 [2, 4]: 15.2 nM
IC50 [3]: > 50000 nM

— EP4741390A1, “BIARYL RING COMPOUND, INTERMEDIATE THEREOF, PREPARATION METHOD THEREFOR AND USE THEREOF” (Hangzhou Synrx Therapeutics Biomedical Technology Co., Ltd., priority 2023, dated 2025)
